For this experiment, the system named is P388 leukemia ip, CD2F1 mice, survival T/C. The experiment is described as follows: NCI In Vivo Anticancer Drug Screen. Data for tumor model P388 Leukemia (intraperitoneal) in CD2F1 (CDF1) mice. The note with it: endpoint: median survival time, higher = longer survival. The gist of the method:
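Mice carrying the transplanted tumor received test compound or vehicle. Survival was recorded in each group, and the value is the treated-group measurement divided by that of the vehicle-treated control group.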

Setting [1] is: dose: 12.5 mg/kg/injection, schedule: Q01DX005 (ip), vehicle: saline.
[2] abbreviates: dose: 25.0 mg/kg/injection, schedule: Q01DX005 (ip), vehicle: saline.
Where [3] appears, read: dose: 50.0 mg/kg/injection, schedule: Q01DX005 (ip), vehicle: saline.
[4] abbreviates: dose: 100.0 mg/kg/injection, schedule: Q04DX003 (ip), vehicle: saline with Tween-80.
The mark [5] stands for this setting: dose: 400.0 mg/kg/injection, schedule: Q04DX003 (ip), vehicle: saline with Tween-80.
Setting [6] is: dose: 200.0 mg/kg/injection, schedule: Q04DX003 (ip), vehicle: saline with Tween-80.
Where [7] appears, read: dose: 100.0 mg/kg/injection, schedule: Q01DX005 (ip), vehicle: saline with Tween-80.

“And” between values parts separate entries of the source, which are not always exact repeats. Identical values can stand only once. Inconclusive results and toxic doses are left out. Peptide text beside a SMILES is read from it.

On to `CCCCCN(CCCCC)CCCNc1c2c(nc3ccc(Cl)cc13)CCCC2`, for which the T/C runs as follows: under setting [1], 95 % of control; under setting [2], 104 % of control; under setting [3], 104 % of control and 107 % of control.
Take `CCCCOC(=O)c1[nH]cnc1/N=N\N(C)C`: the T/C is 120 % of control (dose: 25.0 mg/kg/injection, schedule: Q01DX009 (ip), vehicle: saline with Tween-80); 105 % of control (dose: 100.0 mg/kg/injection, schedule: Q01DX009 (ip), vehicle: saline with Tween-80); 108 % of control under setting [4]; 100 % of control (dose: 132.0 mg/kg/injection, schedule: Q04DX003 (ip), vehicle: saline with Tween-80); 90 % of control (dose: 300.0 mg/kg/injection, schedule: Q04DX003 (ip), vehicle: saline with Tween-80); 100 % of control under setting [5].
With `O=C(CC[N+](=O)[O-])OCC1OC(OC(=O)CC[N+](=O)[O-])C(O)C(O)C1O` (stereo unspecified), the T/C is, setting by setting: (dose: 12.5 mg/kg/injection, schedule: Q01DX005 (ip), vehicle: water) 98 % of control; (dose: 25.0 mg/kg/injection, schedule: Q01DX001 (ip), vehicle: saline + alcohol) 102 % of control; (dose: 25.0 mg/kg/injection, schedule: Q01DX005 (ip), vehicle: water) 104 % of control; (dose: 50.0 mg/kg/injection, schedule: Q01DX001 (ip), vehicle: saline + alcohol) 96 % of control; (dose: 50.0 mg/kg/injection, schedule: Q01DX005 (ip), vehicle: water) 97 % of control; (dose: 100.0 mg/kg/injection, schedule: Q01DX001 (ip), vehicle: saline + alcohol) 105 % of control. Moreover, the T/C reads like this: (dose: 100.0 mg/kg/injection, schedule: Q01DX005 (ip), vehicle: water) 95 % of control; (dose: 200.0 mg/kg/injection, schedule: Q01DX005 (ip), vehicle: water) 100 % of control.
In the case of `C=C[P+](c1ccccc1)(c1ccccc1)c1ccccc1`, the T/C reads like this: (dose: 0.37 mg/kg/injection, schedule: Q01DX009 (ip), vehicle: saline) 104 % of control; (dose: 0.75 mg/kg/injection, schedule: Q01DX009 (ip), vehicle: saline) 105 % of control; (dose: 1.5 mg/kg/injection, schedule: Q01DX009 (ip), vehicle: saline) 116 % of control.
Turning to `O=C(CC(O)(c1ccccc1)c1ccccc1)Sc1ccccc1`, the T/C reads like this: (dose: 100.0 mg/kg/injection, schedule: Q04DX003 (ip), vehicle: Klucel (hydroxypropylcellulose) (HPC)) 110 % of control; (dose: 200.0 mg/kg/injection, schedule: Q04DX003 (ip), vehicle: Klucel (hydroxypropylcellulose) (HPC)) 105 % of control; (dose: 400.0 mg/kg/injection, schedule: Q04DX003 (ip), vehicle: Klucel (hydroxypropylcellulose) (HPC)) 105 % of control.
With `CCCCCC(O)CCCCC`, the T/C under setting [4] was 100 % of control, the T/C under setting [6] was 109 % of control and the T/C under setting [5] is 100 % of control.
`S=c1n(-c2ccc(Cl)cc2)c2nc3ccccc3nc(/c2=N\Nc2ccccc2)n1-c1ccccn1`: the T/C is, setting by setting: (dose: 50.0 mg/kg/injection, schedule: Q01DX005 (ip), vehicle: saline with Tween-80) 91 % of control; under setting [7], 100 % of control.
Turning to `O=C(O)C(S(=O)(=O)O)S(=O)(=O)O`, the T/C by setting is: (dose: 1.56 mg/kg/injection, schedule: Q01DX001 (ip), vehicle: saline with Tween-80) 103 % of control; (dose: 3.13 mg/kg/injection, schedule: Q01DX001 (ip), vehicle: saline with Tween-80) 100 % of control; (dose: 6.25 mg/kg/injection, schedule: Q01DX001 (ip), vehicle: saline with Tween-80) 100 % of control.
For `Clc1ccc(CNc2ncnc3[nH]ncc23)c(Cl)c1`, the T/C runs as follows: under setting [4], 100 % of control; under setting [6], 100 % of control.
For the molecule `Nc1ncnc2c1ncn2C1OC(COS(N)(=O)=O)C(O)C1O` (stereo unspecified), the T/C is 98 % of control (dose: 0.02 mg/kg/injection, schedule: Q01DX005 (ip), vehicle: saline); 103 % of control (dose: 0.04 mg/kg/injection, schedule: Q01DX005 (ip), vehicle: saline); 119 % of control (dose: 0.09 mg/kg/injection, schedule: Q01DX005 (ip), vehicle: saline); 109 % of control (dose: 0.18 mg/kg/injection, schedule: Q01DX001 (ip), vehicle: saline).
As for `CC1CC(C#N)=C(NC#N)NC1=O` (stereo unspecified), the T/C reads like this: (dose: 7.5 mg/kg/injection, schedule: Q01DX005 (ip), vehicle: saline with Tween-80) 108 % of control; (dose: 7.5 mg/kg/injection, schedule: Q01DX005 (ip), vehicle: saline) 101 % of control; (dose: 15.0 mg/kg/injection, schedule: Q01DX005 (ip), vehicle: saline with Tween-80) 111 % of control; (dose: 15.0 mg/kg/injection, schedule: Q01DX005 (ip), vehicle: saline) 106 % of control.
For the molecule `CC1(C)N=C(N)N=C(N)N1c1ccc(CCc2ccccc2)cc1`, the T/C reads like this: (dose: 37.5 mg/kg/injection, schedule: Q04DX003 (ip), vehicle: saline with Tween-80) 87 % of control; (dose: 75.0 mg/kg/injection, schedule: Q04DX003 (ip), vehicle: saline with Tween-80) 100 % of control; (dose: 100.0 mg/kg/injection, schedule: Q04DX003 (ip), vehicle: saline) 120 % of control; (dose: 200.0 mg/kg/injection, schedule: Q04DX003 (ip), vehicle: saline) 100 % of control.
On to `COc1cc(C[C@H]2[C@H]([C@H](O)c3ccc4c(c3)OCO4)C(=O)O[C@@H]2CO)cc(OC)c1OC`, for which the T/C is, setting by setting: (dose: 5.0 mg/kg/injection, schedule: Q04DX002 (ip), vehicle: saline with Tween-80) 105 % of control; (dose: 10.0 mg/kg/injection, schedule: Q04DX002 (ip), vehicle: saline with Tween-80) 102 % of control; (dose: 20.0 mg/kg/injection, schedule: Q04DX002 (ip), vehicle: saline with Tween-80) 102 % of control.
With `COc1cc(NCC(C)(O)CN2CCCCC2)c2ncccc2c1` (stereo unspecified), the T/C is 94 % of control under setting [1]; 98 % of control under setting [2]; 93 % of control and 97 % of control under setting [3].
For the molecule `CCc1ccc(-c2cc(-c3ccc(CC)cc3)cc(-c3ccc(CC)cc3)c2)cc1`, the T/C by setting is: (dose: 60.0 mg/kg/injection, schedule: Q01DX005 (ip), vehicle: saline with Tween-80) 100 % of control; under setting [7], 94 % of control; (dose: 200.0 mg/kg/injection, schedule: Q01DX005 (ip), vehicle: saline with Tween-80) 91 % of control.
In the case of `COC(=O)CC1(C(=O)OC)C2CCCN2C2(C#N)c3ccccc3CCC12Br` (stereo unspecified), the T/C reads like this: (dose: 100.0 mg/kg/injection, schedule: Q01DX001 (ip), vehicle: saline) 111 % of control; (dose: 200.0 mg/kg/injection, schedule: Q01DX001 (ip), vehicle: saline) 117 % of control; (dose: 400.0 mg/kg/injection, schedule: Q01DX001 (ip), vehicle: saline) 104 % of control.
On to `C/C=C/C=C\C(=O)O`, for which the T/C was 102 % of control (dose: 6.25 mg/kg/injection, schedule: Q01DX009 (ip), vehicle: saline); 93 % of control (dose: 12.5 mg/kg/injection, schedule: Q01DX009 (ip), vehicle: saline); 93 % of control (dose: 25.0 mg/kg/injection, schedule: Q01DX009 (ip), vehicle: saline); 104 % of control (dose: 200.0 mg/kg/injection, schedule: Q01DX009 (ip), vehicle: saline with Tween-80).
With `CSCCC(N)C(=O)NC(CC(N)=O)C(=O)O` (stereo not drawn) (H-Met-Asn-OH; configuration not given here), the T/C under setting [3] was 98 % of control; the T/C (dose: 100.0 mg/kg/injection, schedule: Q01DX005 (ip), vehicle: saline) is 101 % of control; the T/C (dose: 200.0 mg/kg/injection, schedule: Q01DX005 (ip), vehicle: saline) is 99 % of control.
For `COC(C(=O)C(O)C(C)O)C1CC2C=C3C=C(OC4CC(OC5CC(O)C(OC)C(C)O5)C(OC(C)=O)C(C)O4)C(C)C(=O)C3=C(O)C2=C(O)C1OC1CC(OC2CC(OC3CC(C)(O)C(O)C(C)O3)C(O)C(C)O2)C(O)C(C)O1` (stereo unspecified), the T/C is 110 % of control (dose: 0.25 mg/kg/injection, schedule: Q01DX001 (ip), vehicle: water); 112 % of control (dose: 0.5 mg/kg/injection, schedule: Q01DX001 (ip), vehicle: water); 118 % of control (dose: 1.0 mg/kg/injection, schedule: Q01DX001 (ip), vehicle: water); 124 % of control (dose: 2.0 mg/kg/injection, schedule: Q01DX001 (ip), vehicle: water); 154 % of control (dose: 8.0 mg/kg/injection, schedule: Q01DX001 (ip), vehicle: water).
As for `CC#CS(=O)C#CC`, the T/C by setting is: (dose: 3.12 mg/kg/injection, schedule: Q01DX009 (ip), vehicle: distilled water + alcohol) 105 % of control; (dose: 6.25 mg/kg/injection, schedule: Q01DX009 (ip), vehicle: distilled water + alcohol) 105 % of control.

The record behind these values is PubChem BioAssay AID330 (DTP/NCI, 2004).
